Laboratory results: ChEMBL document CHEMBL3612043, “Synthesis and biological evaluation of 6-substituted indolizinoquinolinediones as catalytic DNA topoisomerase I inhibitors” (Eur J Med Chem, 2015)
Activity calls are given as the source filed them. The rule behind the calls is not given here.

Assays:
CA46 = assay: Cytotoxicity against human CA46 cells after 48 hrs by MTT assay; assay type: functional, cell-based; conditions: CA46, 48 h
[1] = target: T1, DNA topoisomerase 1 (Homo sapiens) (UniProt P11387); assay: Inhibition of Top1 (unknown origin)-mediated unwinding of relaxed pBR322 DNA preincubated for 10 mins measured after 30 mins by UV transilluminator analysis
T1 sequence (whole entry): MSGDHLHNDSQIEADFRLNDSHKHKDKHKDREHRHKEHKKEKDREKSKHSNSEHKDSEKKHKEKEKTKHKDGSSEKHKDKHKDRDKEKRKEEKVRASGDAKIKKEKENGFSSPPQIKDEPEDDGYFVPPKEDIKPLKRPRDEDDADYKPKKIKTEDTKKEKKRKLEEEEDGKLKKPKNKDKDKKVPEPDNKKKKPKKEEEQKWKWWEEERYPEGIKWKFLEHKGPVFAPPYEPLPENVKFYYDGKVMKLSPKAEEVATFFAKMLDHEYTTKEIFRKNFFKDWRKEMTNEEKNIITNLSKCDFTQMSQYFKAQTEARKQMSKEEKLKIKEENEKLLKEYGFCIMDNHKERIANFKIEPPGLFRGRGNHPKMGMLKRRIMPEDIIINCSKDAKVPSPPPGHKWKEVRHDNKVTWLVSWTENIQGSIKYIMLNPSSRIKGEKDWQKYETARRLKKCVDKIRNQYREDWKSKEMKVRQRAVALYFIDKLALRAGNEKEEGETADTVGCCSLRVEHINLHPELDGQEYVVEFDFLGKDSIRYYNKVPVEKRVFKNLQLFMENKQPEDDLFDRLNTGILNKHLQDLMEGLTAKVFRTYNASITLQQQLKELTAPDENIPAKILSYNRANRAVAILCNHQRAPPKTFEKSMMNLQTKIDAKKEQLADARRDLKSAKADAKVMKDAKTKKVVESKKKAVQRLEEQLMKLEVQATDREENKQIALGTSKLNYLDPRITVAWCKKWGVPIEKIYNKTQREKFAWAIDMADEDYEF

[2] = target: T1, DNA topoisomerase 1 (Homo sapiens); assay: Induction of recombinant Top1 (unknown origin) assessed as 3'-[32P]-labeled 117-bp DNA oligonucleotide cleavage after 20 mins
HL-60 = assay: cells; conditions: Homo sapiens, HL-60, 48 h
Description: Cytotoxicity against human HL60 cells after 48 hrs by MTT assay

A549 = assay: cells; conditions: Homo sapiens, A549, 48 h
Description: Cytotoxicity against human A549 cells after 48 hrs by MTT assay

Bos taurus = organism: Bos taurus; assay: Inhibition of calf thymus Top1-mediated pBR322 DNA relaxation at 25 uM preincubated for 15 mins measured after 30 mins by ethidium bromide staining relative to camptothecin
HeLa = assay: cells; conditions: Homo sapiens, 48 h
Description: Cytotoxicity against human HeLa cells after 48 hrs by MTT assay

[3] = Inhibition of calf thymus Top1-mediated pBR322 DNA relaxation preincubated for 15 mins measured after 30 mins by ethidium bromide staining; design: species or system Bos taurus

| SMILES | IC50 (CA46) | inhibition [1] | Activity [2] | IC50 (HL-60) | IC50 (A549) | Top1 relaxation inhibition relative to camptothecin (%) (Bos taurus) | IC50 (HeLa) | IC50 [3] |
| --- | --- | --- | --- | --- | --- | --- | --- | --- |
| CN1CCN(CCNC(=O)c2c3c(n4ccccc24)C(=O)c2ncccc2C3=O)CC1 | 1100 nM | Active | inactive | 2800 nM | 440 nM | > 120% | 1000 nM | – |
| O=C1c2cccnc2C(=O)c2c1c(C(=O)NCCN1CCCC1)c1ccccn21 | 15000 nM | Active | inactive | 1200 nM | 490 nM | > 120% | 780 nM | – |
| CCN(CC)C(=O)c1c2c(n3ccccc13)C(=O)c1ncccc1C2=O | 15000 nM | – | inactive | 14000 nM | 64000 nM | < 40% | 46000 nM | – |
| O=C1c2cccnc2C(=O)c2c1c(C(=O)N1CCCCC1)c1ccccn21 | 13000 nM | – | inactive | 52000 nM | 76000 nM | < 40% | 19000 nM | – |
| O=C1c2cccnc2C(=O)c2c1c(C(=O)NCCN1CCCCC1)c1ccccn21 | – | – | inactive | – | – | – | – | – |
| O=C1c2cccnc2C(=O)c2c1c(C(=O)OCCBr)c1ccccn21 | – | – | inactive | – | – | – | – | – |
| O=C1c2cccnc2C(=O)c2c1c(C(=O)NCCCN1CCCCC1)c1ccccn21 | 1200 nM | Active | inactive | 1300 nM | 3300 nM | > 120% | 1200 nM | – |
| CN(C)CCCNC(=O)c1c2c(n3ccccc13)C(=O)c1ncccc1C2=O | 1200 nM | Active | inactive | 2300 nM | 370 nM | > 120% | 960 nM | – |
| CCOC(=O)c1c2c(n3ccccc13)C(=O)c1ncccc1C2=O | 3700 nM | inactive | inactive | 300 nM | 1400 nM | 81% | 22000 nM | – |
| O=C1c2cccnc2C(=O)c2c1c(C(=O)OCCCN1CCOCC1)c1ccccn21 | 1400 nM | Active | inactive | 64 nM | 1900 nM | > 120% | 2200 nM | – |
| O=C1c2cccnc2C(=O)c2c1c(C(=O)OCCN1CCCC1)c1ccccn21 | – | – | inactive | – | – | – | – | – |
| O=C1c2cccnc2C(=O)c2c1c(C(=O)NCCCc1ccccc1)c1ccccn21 | 14000 nM | – | inactive | 75000 nM | 15000 nM | 40% | 29000 nM | – |
| O=C1c2cccnc2C(=O)c2c1c(C(=O)NCCN1CCOCC1)c1ccccn21 | 3400 nM | Active | inactive | 1200 nM | 890 nM | > 120% | 1600 nM | – |
| O=C1c2cccnc2C(=O)c2c1c(C(=O)OCCc1ccccn1)c1ccccn21 | 2900 nM | inactive | inactive | 110 nM | 7800 nM | 81% | 1100 nM | – |
| CCNC(=O)c1c2c(n3ccccc13)C(=O)c1ncccc1C2=O | – | – | inactive | – | – | – | – | – |
| O=C1c2cccnc2C(=O)c2c1c(C(=O)OCCN1CCOCC1)c1ccccn21 | 5800 nM | inactive | inactive | 34 nM | < 10 nM | > 120% | 10000 nM | – |
| CCN(CC)CCCNC(=O)c1c2c(n3ccccc13)C(=O)c1ncccc1C2=O | 1200 nM | Active | inactive | 1400 nM | 1000 nM | > 120% | 1300 nM | – |
| O=C1c2cccnc2C(=O)c2c1c(C(=O)NCCc1ccccc1)c1ccccn21 | 7900 nM | – | inactive | 14000 nM | 19000 nM | < 40% | 17000 nM | – |
| CC[C@@]1(O)C(=O)OCc2c1cc1n(c2=O)Cc2cc3ccccc3nc2-1 [CAMPTOTHECIN] | 520 nM | – | inactive | 15 nM | 1600 nM | 81% | 14000 nM | 25000 nM |
| CN1CCN(C(=O)c2c3c(n4ccccc24)C(=O)c2ncccc2C3=O)CC1 | 2600 nM | – | inactive | 5700 nM | 30000 nM | 40% | 62000 nM | – |
| O=C1c2cccnc2C(=O)c2c1c(C(=O)N1CCOCC1)c1ccccn21 | 13000 nM | – | inactive | 22000 nM | 77000 nM | < 40% | > 100000 nM | – |
| O=C1c2cccnc2C(=O)c2c1c(C(=O)OCCCN1CCCC1)c1ccccn21 | 1100 nM | Active | inactive | 26 nM | 140 nM | > 120% | 940 nM | – |
| O=C1c2cccnc2C(=O)c2c1c(C(=O)NCCn1ccnc1)c1ccccn21 | 2900 nM | inactive | inactive | 2300 nM | 2300 nM | > 120% | 5800 nM | – |
| CN(C)CCNC(=O)c1c2c(n3ccccc13)C(=O)c1ncccc1C2=O | 5900 nM | Active | inactive | 1200 nM | 610 nM | > 120% | 920 nM | – |
| CN1CCN(CCCNC(=O)c2c3c(n4ccccc24)C(=O)c2ncccc2C3=O)CC1 | 3800 nM | Active | inactive | 2200 nM | 5500 nM | > 120% | 8900 nM | – |
| O=C1c2cccnc2C(=O)c2c1c(C(=O)NCCCN1CCCC1)c1ccccn21 | 2700 nM | Active | inactive | 1900 nM | 1200 nM | > 120% | 1800 nM | – |
| O=C1c2cccnc2C(=O)c2c1c(C(=O)OCCCN1CCCCC1)c1ccccn21 | 900 nM | Active | inactive | 25 nM | 1000 nM | > 120% | 480 nM | – |
| O=C1c2cccnc2C(=O)c2c1c(C(=O)OCCN1CCCCC1)c1ccccn21 | 3000 nM | Active | inactive | 320 nM | 520 nM | > 120% | 2200 nM | – |
| O=C1c2cccnc2C(=O)c2c1c(C(=O)OCCCBr)c1ccccn21 | – | – | inactive | – | – | – | – | – |
| O=C1c2cccnc2C(=O)c2c1c(C(=O)NCCCN1CCOCC1)c1ccccn21 | 1100 nM | Active | inactive | 1300 nM | 4200 nM | > 120% | 5900 nM | – |
